In patent US12433954B2, “Methods of activating anti-CD19 chimeric antigen receptor (CAR) T cells using amphiphilic ligand conjugates comprising CAR-targeting protein sequence motifs” (Massachusetts Institute of Technology, priority 2020, dated 2025):
Ends that are not written are not given here.

Assays:
FMC63 CAR T cells = assay: Long-term in vivo boosting, CAR T expansion in peripheral blood; details: day 13; vaccinations day 2 and day 9 with 25 μg cyclic-di-GMP; lymphodepleted mice; vs control mice
From the text: FIG. 19A depicts a timeline for administration of CD45.1+ donor FMC63 CAR T cells to CD45.2+ recipient mice on Day 1 following lymphodepletion on day 0. The mice were further administered a first dose of amph-mimotope or bivalent amph-mimotope on Day 2 and a second dose on Day 9. Peripheral blood was obtained from the mice on Day 13 and expansion of CD45.1+ CAR T cells were quantified by flow cytometry. FIG. 19B provides plots measuring the percentage of total T cells expressing CD45.1 and FMC63 CAR in peripheral blood isolated on day 13 from mice treated according to FIG. 19A. […] Control mice received no vaccination. […] Briefly, CD45.2^+ recipient mice received lymphodepeletion preconditioning (sublethal irradiation, 500cGy) on day 0. The mice were then administered 1×10^6 CD45.1^+ donor FMC63 CAR T cells on day 1, followed by two vaccinations on day 2 and day 9 using the following formulation: • (i) 10 ug of monovalent amph-mimotope (Amph-K-C2)+25 μg of cyclic-di-GMP in 1×PBS; or • (ii) 20 ug of amph-Bi-F12-mimotope (PEG4 or PEG8)+25 μg of cyclic-di-GMP in 1×PBS. Control mice received no vaccination. On day 13, peripheral blood was collected for analysis of CAR T expansion in response to amph-mimotope vaccine boosting by flow cytometry. CAR T cells were defined as CD45.1^+CAR^+ cells and were quantified as proportion of total CD8+ T cells.

FMC63 IgG = assay: Yeast clone staining with biotinylated FMC63 IgG, Kd from MFI (FACS); format: binding, mouse; details: yeast clones, 0.01-1000 nM biotinylated FMC63 IgG
Chain of FMC63 IgG (as listed by the source): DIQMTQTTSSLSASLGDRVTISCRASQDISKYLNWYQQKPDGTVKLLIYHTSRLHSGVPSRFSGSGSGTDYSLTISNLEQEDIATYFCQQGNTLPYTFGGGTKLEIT
Chain of FMC63 IgG (as listed by the source): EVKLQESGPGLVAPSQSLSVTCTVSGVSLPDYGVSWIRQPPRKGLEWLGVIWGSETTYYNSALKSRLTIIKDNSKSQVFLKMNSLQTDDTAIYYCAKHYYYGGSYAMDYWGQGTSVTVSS
From the text: In order to validate specific sequences, clones were isolated and measured for their affinity to FMC63. Specifically, a subset of mimotope clones were selected from the fixed library sequence described in Example 5.

FMC63 scFv = assay: Yeast clone staining with biotinylated FMC63 scFv, Kd by FACS; format: binding, mouse; details: yeast clones, biotinylated FMC63 scFv monomer
Chain of FMC63 scFv (as listed by the source): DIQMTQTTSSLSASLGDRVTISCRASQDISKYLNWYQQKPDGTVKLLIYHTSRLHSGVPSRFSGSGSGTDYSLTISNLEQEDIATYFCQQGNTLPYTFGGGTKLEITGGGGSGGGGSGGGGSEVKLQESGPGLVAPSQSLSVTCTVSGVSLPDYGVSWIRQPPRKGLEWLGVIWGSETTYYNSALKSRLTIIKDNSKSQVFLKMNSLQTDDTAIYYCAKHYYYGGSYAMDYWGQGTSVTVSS
Description: FIGS. 10A & 10B provide graphs showing binding of yeast clones expressing the indicated mimotopes to biotinylated FMC63 IgG (FIG. 10A) or biotinylated FMC63 scFv (FIG. 10B) at increasing concentration (0.01-1000 nM).
Identifying specific mimotope clones of varying affinities will provide flexibility in treatments. In order to validate specific sequences, clones were isolated and measured for their affinity to FMC63. Specifically, a subset of mimotope clones were selected from the fixed library sequence described in Example 5. […] Given the FDA-approved CAR is an scFV derived from the parental IgG, mimotope binding to FMC63-scFv monomer was tested using biotinylated FMC63 scFV to measure Kd by FACS (FIG. 10B). […] This screen positively identified mimotope clones with varying affinities to FMC63 which may be used for a tailored vaccine approach.

amph-bi-F12-peg8 (GGGSASRICPWNCKEL; not fully specified (C-terminus); cysteine pairing not given here; also: bivalent amphiphile conjugate via C-terminal PEG8 linker)
expansion of CAR T cells (CD45.1+CAR+ of total CD8+ T cells) in peripheral blood (FMC63 CAR T cells): highest level of proliferation

D12 (RICPWSCRAP; Synthetic FMC63 Mimotope (D12)) [Clone D12]
Kd (FMC63 IgG): > 1 µM
Kd (FMC63 scFv): > 1 µM
